Assay results taken from patent publication US7696379B2, “Acetylene derivatives” (Novartis AG, priority 2005, dated 2010).

Experiments:
hmGluR5 = biological target: T1, hmGluR5 (Homo sapiens, UniProt P41594); experiment: inhibition of agonist induced inositol phosphate turnover in hmGluR5 expressing cells; assay type: cell-based; conditions: read-out: IC50 concentration, inhibition of quinqualate-induced inositol phosphate turnover
T1 construct: expressed in transfected cells
Excerpt: This can be determined in vitro for example at recombinant human metabotropic glutamate receptors, especially PLC-coupled subtypes thereof such as mGluR5, using different procedures like, for example, measurement of the inhibition of the agonist induced elevation of intracellular Ca^2+ concentration in accordance with L. P. Daggett et al., Neuropharm. Vol. 34, pages 871-886 (1995), P. J. Flor et al., J. Neurochem. Vol. 67, pages 58-63 (1996) or by determination to what extent the agonist induced elevation of the inositol phosphate turnover is inhibited as described by T. Knoepfel et al., Eur. J. Pharmacol. Vol. 288, pages 389-392 (1994), L. P. Daggett et al., Neuropharm. Vol. 67, pages 58-63 (1996) and references cited therein. Isolation and expression of human mGluR subtypes are described in U.S. Pat. No. 5,521,297. Selected agents of the invention show IC50 values for the inhibition of the agonist (e.g. glutamate or quisqualate) induced elevation of intracellular Ca2+ concentration or the agonist (e.g. glutamate or quisqualate) induced inositol phosphate turnover, measured in recombinant cells expressing hmGluR5a of about 1 nM to about 50 μM.

[1] = test system: stress-induced hyperthermia in mice; experiment: stress-induced hyperthermia in mice; assay type: in vivo; conditions: control hyperthermia 0.82+/−0.1° C.
Description: A. Lecci et al., Psychopharmacol. 101, 255-261]. At doses of about 0.1 to about 30 mg/kg p.o., selected agents of the invention reverse the stress-induced hyperthermia.
With Furan-3-carboxylic acid [(1R,3R)-3-(3-chloro-phenylethynyl)-3-hydroxy-cyclohexyl]-amide, a stress-induced hyperthermia of 0.82+/−0.1° C. was reduced to 0.37+/−0.10° C. at 3 mg/kg p.o., to 0.02+/−0.08° C. at 10 mg/kg p.o. and to −0.49+/−0.12° C. at 30 mg/kg p.o. (p<0.01; p<0.001; p<0.001 respectively).

T1 sequence (P41594 21-1180 isoform P41594-2 limits assumed): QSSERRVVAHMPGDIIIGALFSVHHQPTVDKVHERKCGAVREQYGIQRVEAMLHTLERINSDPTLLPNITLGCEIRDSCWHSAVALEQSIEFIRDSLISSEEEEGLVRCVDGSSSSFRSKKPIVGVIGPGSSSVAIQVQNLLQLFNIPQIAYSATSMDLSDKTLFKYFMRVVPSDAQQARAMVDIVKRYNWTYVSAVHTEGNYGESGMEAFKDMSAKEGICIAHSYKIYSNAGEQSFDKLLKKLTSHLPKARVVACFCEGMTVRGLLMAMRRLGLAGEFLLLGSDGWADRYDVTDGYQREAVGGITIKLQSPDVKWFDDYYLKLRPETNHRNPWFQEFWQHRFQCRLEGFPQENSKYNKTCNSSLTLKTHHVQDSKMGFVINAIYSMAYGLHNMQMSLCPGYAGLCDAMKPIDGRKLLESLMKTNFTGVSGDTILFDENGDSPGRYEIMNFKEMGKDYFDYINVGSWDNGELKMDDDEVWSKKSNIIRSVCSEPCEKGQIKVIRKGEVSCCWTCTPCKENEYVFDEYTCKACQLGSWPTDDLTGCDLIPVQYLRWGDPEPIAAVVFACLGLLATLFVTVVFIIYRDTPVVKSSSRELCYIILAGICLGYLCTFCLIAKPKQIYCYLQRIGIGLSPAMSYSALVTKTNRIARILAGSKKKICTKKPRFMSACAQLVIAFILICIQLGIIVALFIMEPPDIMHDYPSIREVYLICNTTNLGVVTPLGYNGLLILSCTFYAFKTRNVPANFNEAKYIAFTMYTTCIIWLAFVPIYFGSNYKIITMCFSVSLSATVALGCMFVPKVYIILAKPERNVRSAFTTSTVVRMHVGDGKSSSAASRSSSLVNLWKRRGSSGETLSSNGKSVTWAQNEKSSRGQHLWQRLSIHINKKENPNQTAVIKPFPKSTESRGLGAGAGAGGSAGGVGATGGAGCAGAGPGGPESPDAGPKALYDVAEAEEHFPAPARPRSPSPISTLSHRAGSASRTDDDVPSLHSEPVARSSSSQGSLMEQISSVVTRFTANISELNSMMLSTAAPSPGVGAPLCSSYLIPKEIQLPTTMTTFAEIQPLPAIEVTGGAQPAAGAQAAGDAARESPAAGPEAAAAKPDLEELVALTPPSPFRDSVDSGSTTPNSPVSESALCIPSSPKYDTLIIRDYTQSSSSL

| Structure (SMILES) | melting point [°C] | further results |
| --- | --- | --- |
| Cc1cccc(C#C[C@@]2(O)CCC[C@@H](NC(=O)c3ccoc3)C2)c1 (racemic) [Example 1.19, Furan-3-carboxylic acid ((±)-(1R,3R)-3-hydroxy-3-m-tolylethynyl-cyclohexyl)-amide] | 135 to 138 | – |
| O=C(N[C@@H]1CCC[C@](O)(C#Cc2cccc(Cl)c2)C1)c1ccoc1 [Example 1, Furan-3-carboxylic acid [(1R,3R)-3-(3-chloro-phenylethynyl)-3-hydroxy-cyclohexyl]-amide] | – | IC50 (hmGluR5): 28 nM; stress-induced hyperthermia ([1]; 3 mg/kg p.o., p<0.01): 0.37+/−0.10 °C; stress-induced hyperthermia ([1]; 10 mg/kg p.o., p<0.001): 0.02+/−0.08 °C; stress-induced hyperthermia ([1]; 30 mg/kg p.o., p<0.001): −0.49+/−0.12 °C |
| Cc1cccc(C#C[C@@]2(O)CCC[C@@H](NC(=O)c3ccco3)C2)c1 [Example 1.20, Furan-2-carboxylic acid ((1R,3R)-3-hydroxy-3-m-tolylethynyl-cyclohexyl)-amide] | 139 to 142 | – |

Second part, led by results:

| melting point [°C] | Structure (SMILES) | further results |
| --- | --- | --- |
| 190 to 191 | O=C(N[C@@H]1CCC[C@](O)(C#Cc2cccc(F)c2)C1)c1cnc[nH]1 (racemic) [Example 1.37, 3H-Imidazole-4-carboxylic acid [(±)-(1R,3R)-3-(3-fluoro-phenylethynyl)-3-hydroxy-cyclohexyl]-amide] | – |
| 139 to 140 | Cc1cccc(C#C[C@]2(O)CCC[C@H](NC(=O)c3ccco3)C2)c1 [Example 1.21, Furan-2-carboxylic acid ((1S,3S)-3-hydroxy-3-m-tolylethynyl-cyclohexyl)-amide] | – |
